Assay results reported in patent US8629157B2, “Pyrrolidine compounds which modulate the CB2 receptor” (Boehringer Ingelheim International GmbH, priority 2009, dated 2014).
pEC50: −log10 of the molar value.

These compounds were tested against human CB2R (Homo sapiens, UniProt P34972) (assay: CB2R mediated modulation of cAMP synthesis). Details: not given.
Type: cell-based
In short: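 CHO cells expressing human CB2R were treated 30 min at 37° C. with compounds in buffer containing 1 mM IBMX, 0.25% BSA and 10 uM forskolin; cAMP in lysates was measured by DiscoverX-XS kit.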

human CB2R, sequence (P34972 whole entry): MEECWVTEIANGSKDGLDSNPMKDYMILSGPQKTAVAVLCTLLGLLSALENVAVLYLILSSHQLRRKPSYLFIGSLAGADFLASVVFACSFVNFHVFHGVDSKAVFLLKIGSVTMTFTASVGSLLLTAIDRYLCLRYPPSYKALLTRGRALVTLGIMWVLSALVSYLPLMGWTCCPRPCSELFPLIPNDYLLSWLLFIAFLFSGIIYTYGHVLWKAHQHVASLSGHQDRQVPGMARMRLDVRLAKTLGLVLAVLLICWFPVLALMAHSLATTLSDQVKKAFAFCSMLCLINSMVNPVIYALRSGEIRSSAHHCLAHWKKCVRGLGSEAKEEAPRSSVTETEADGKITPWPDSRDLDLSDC

Q: With `C[C@@]1(C(=O)Nc2nc(-c3ccccc3)ns2)CCCN1c1ccc(C(F)(F)F)cn1` [(S)-2-Methyl-1-(5-trifluoromethyl-pyridin-2-yl)-pyrrolidine-2-carboxylic acid (3-phenyl-1,2,4-thiadiazol-5-yl)-amide] as the compound, how does the pEC50 read?
A: Its pEC50 is 9.87.

Q: With `CC(C)(C)c1cc(NC(=O)[C@]2(C)CCCN2c2ccc(C(F)(F)F)cn2)no1` [(S)-2-Methyl-1-(5-trifluoromethyl-pyridin-2-yl)-pyrrolidine-2-carboxylic acid (5-tert-butyl-isoxazol-3-yl)-amide] as the compound, how does the pEC50 read?
A: The pEC50 was 10.82.

Q: How did the pEC50 turn out when `C[C@@]1(C(=O)Nc2ccc(C(F)(F)F)cn2)CCCN1c1ccc(C(F)(F)F)cn1` [(S)-2-Methyl-1-(5-trifluoromethyl-pyridin-2-yl)-pyrrolidine-2-carboxylic acid (5-trifluoromethyl-pyridin-2-yl)-amide] was run?
A: Its pEC50 is 9.20.

Q: `CC(C)(C)c1cc(NC(=O)[C@@H]2CCC(=O)N2c2cc(F)c(F)c(F)c2)on1` [(S)-5-Oxo-1-(3,4,5-trifluoro-phenyl)-pyrrolidine-2-carboxylic acid (3-tert-butyl-isoxazol-5-yl)-amide] was tested. Which pEC50 did it give?
A: The pEC50 was 7.10.

Q: With `CC(C)(C)c1cc(NC(=O)[C@@H]2CCC(=O)N2c2cc(F)c(F)c(F)c2)no1` [(S)-5-Oxo-1-(3,4,5-trifluoro-phenyl)-pyrrolidine-2-carboxylic acid (5-tert-butyl-isoxazol-3-yl)-amide] as the compound, how does the pEC50 read?
A: The pEC50 was 7.13.

Q: How did the pEC50 turn out when `CC(C)(C)c1cc(NC(=O)[C@@H]2CCC(=O)N2c2ccc(OC(F)(F)F)cc2)on1` [(S)-5-Oxo-1-(4-trifluoromethoxy-phenyl)-pyrrolidine-2-carboxylic acid (3-tert-butyl-isoxazol-5-yl)-amide] was run?
A: The pEC50 was 7.46.

Q: How did the pEC50 turn out when `CC(C)(C)c1cc(NC(=O)[C@@H]2CCC(=O)N2c2ccc(OC(F)(F)F)cc2)no1` [(S)-5-Oxo-1-(4-trifluoromethoxy-phenyl)-pyrrolidine-2-carboxylic acid (5-tert-butyl-isoxazol-3-yl)-amide] was run?
A: The pEC50 was 6.88.

Q: How did the pEC50 turn out when `CC(C)c1cc(NC(=O)[C@@H]2CCC(=O)N2c2ccc(C(F)(F)F)cc2)on1` [(S)-5-Oxo-1-(4-trifluoromethyl-phenyl)-pyrrolidine-2-carboxylic acid (3-isopropyl-isoxazol-5-yl)-amide] was run?
A: The pEC50 was 7.38.

Q: With `CCC(C)c1cc(NC(=O)[C@@H]2CCC(=O)N2c2ccc(C(F)(F)F)cc2)on1` (stereo partly drawn) [(S)-5-Oxo-1-(4-trifluoromethyl-phenyl)-pyrrolidine-2-carboxylic acid (3-sec-butyl-isoxazol-5-yl)-amide] as the compound, how does the pEC50 read?
A: Its pEC50 is 7.39.

Q: `CC(C)(C)c1cc(NC(=O)[C@@H]2CCC(=O)N2c2ccc(C(F)(F)F)cc2)sn1` [(S)-5-Oxo-1-(4-trifluoromethyl-phenyl)-pyrrolidine-2-carboxylic acid (3-tert-butyl-isothiazol-5-yl)-amide] was tested. Which pEC50 did it give?
A: Its pEC50 is 6.95.

Q: How did the pEC50 turn out when `CC(C)(C)c1cc(NC(=O)[C@@H]2CCC(=O)N2c2ccc(C(F)(F)F)cc2)no1` [(S)-5-Oxo-1-(4-trifluoromethyl-phenyl)-pyrrolidine-2-carboxylic acid (5-tert-butyl-isoxazol-3-yl)-amide] was run?
A: The pEC50 was 8.24.

Q: With `CC(C)(CO)c1cc(NC(=O)[C@@H]2CCC(=O)N2c2ccc(C(F)(F)F)cc2)no1` [(S)-5-Oxo-1-(4-trifluoromethyl-phenyl)-pyrrolidine-2-carboxylic acid [5-(2-hydroxy-1,1-dimethyl-ethyl)-isoxazol-3-yl]-amide] as the compound, how does the pEC50 read?
A: The pEC50 was 7.09.

Q: With `COCC(C)(C)c1cc(NC(=O)[C@@H]2CCC(=O)N2c2ccc(C(F)(F)F)cc2)no1` [(S)-5-Oxo-1-(4-trifluoromethyl-phenyl)-pyrrolidine-2-carboxylic acid [5-(2-methoxy-1,1-dimethyl-ethyl)-isoxazol-3-yl]-amide] as the compound, how does the pEC50 read?
A: Its pEC50 is 7.82.

Q: How did the pEC50 turn out when `C=Cc1ccc(N2C(=O)CC[C@H]2C(=O)Nc2cc(C(C)(C)C)no2)cc1` [(S)-5-Oxo-1-(4-vinyl-phenyl)-pyrrolidine-2-carboxylic acid (3-tert-butyl-isoxazol-5-yl)-amide] was run?
A: The pEC50 was 7.69.

Q: With `C=Cc1ccc(N2C(=O)CC[C@H]2C(=O)Nc2cc(C(C)(C)C)on2)cc1` [(S)-5-Oxo-1-(4-vinyl-phenyl)-pyrrolidine-2-carboxylic acid (5-tert-butyl-isoxazol-3-yl)-amide] as the compound, how does the pEC50 read?
A: The pEC50 was 7.16.

Q: `Cc1ccc(N2C(=O)CC[C@H]2C(=O)Nc2cc(C(C)(C)C)no2)cc1` [(S)-5-Oxo-1-p-tolyl-pyrrolidine-2-carboxylic acid (3-tert-butyl-isoxazol-5-yl)-amide] was tested. Which pEC50 did it give?
A: The pEC50 was 6.79.

Q: How did the pEC50 turn out when `CC(C)(C)c1cc(NC(=O)[C@@H]2CCC(=O)N2c2ccccn2)on1` [(S)-5-Oxo-1-pyridin-2-yl-pyrrolidine-2-carboxylic acid (3-tert-butyl-isoxazol-5-yl)-amide] was run?
A: Its pEC50 is 6.87.

Q: `Cc1ccc(N2C(=O)CC[C@H]2C(=O)Nc2cc(C(C)(C)C)no2)cc1Cl` [(S)-l-(3-Chloro-4-methyl-phenyl)-5-oxo-pyrrolidine-2-carboxylic acid (3-tert-butyl-isoxazol-5-yl)-amide] was tested. Which pEC50 did it give?
A: The pEC50 was 7.11.

Q: How did the pEC50 turn out when `COCC(C)(C)c1cc(NC(=O)[C@@H]2CCC(=O)N2c2ccc(Cl)cc2)on1` [(S)-l-(4-Chloro-phenyl)-5-oxo-pyrrolidine-2-carboxylic acid [3-(2-methoxy-1,1-dimethyl-ethyl)-isoxazol-5-yl]-amide] was run?
A: Its pEC50 is 7.31.

Q: How did the pEC50 turn out when `COCC(C)(C)c1cc(NC(=O)[C@@H]2CCC(=O)N2c2ccc(Cl)cc2)no1` [(S)-l-(4-Chloro-phenyl)-5-oxo-pyrrolidine-2-carboxylic acid [5-(2-methoxy-1,1-dimethyl-ethyl)-isoxazol-3-yl]-amide] was run?
A: The pEC50 was 7.06.

Q: How did the pEC50 turn out when `CCCN1CCC[C@H]1C(=O)Nc1nc(C(C)(C)C)cs1` [Example 187, (S)-1-Propyl-pyrrolidine-2-carboxylic acid (4-tert-butyl-thiazol-2-yl)-amide] was run?
A: Its pEC50 is 6.80.

Q: How did the pEC50 turn out when `CC(C)(C)OC(=O)CN1CCC[C@H]1C(=O)Nc1cc(C(C)(C)C)no1` [[(S)-2-(3-tert-Butyl-isoxazol-5-ylcarbamoyl)-pyrrolidin-1-yl]-acetic acid tert-butyl ester] was run?
A: Its pEC50 is 10.00.

Same assay, conditions: CHO cells expressing human CB2R; inhibition of forskolin-stimulated cAMP synthesis; mean; read-out: CB2 CAMP @ EC50 nM (mean)

Q: For `COc1ccc(-c2nsc(NC(=O)[C@@H]3CCC(=O)N3c3ccc(C(F)(F)F)cc3)n2)cc1` [(S)-5-Oxo-1-(4-trifluoromethyl-phenyl)-pyrrolidine-2-carboxylic acid [3-(4-methoxy-phenyl)-1,2,4-thiadiazol-5-yl]-amide], which EC50 is on record?
A: The EC50 was 178 nM.

Q: Which EC50 does the source give for `Cc1ccc(N2C(=O)CC[C@H]2C(=O)Nc2cc(C(C)(C)C)on2)cc1Cl` [(S)-l-(3-Chloro-4-methyl-phenyl)-5-oxo-pyrrolidine-2-carboxylic acid (5-tert-butyl-isoxazol-3-yl)-amide] here?
A: The EC50 was 333 nM.
